From patent publication US11879137B2, “Treatment of type 1 diabetes and autoimmune diseases or disorders” (THE CHILDREN'S MEDICAL CENTER CORPORATION, priority 2017, dated 2024)

Experiments:
PD-L1 on CD34+ cells = test: Prostaglandin library screening and FACS of PD-L1 on human CD34+ cells; assay type: cell-based; settings: for capacity to upregulate PD-L1 (MFI) in library screening: 10 μM, CD34+ cells from T1D patients; for PD-L1 expression by FACS analysis: CD34+ cells, 10 μM pulsed at 24 and 48 hours
Source text: FIGS. 17A-17J show prostaglandins enhance PD-L1 expression on human CD34^+ cells. (FIG. 17A-17B) Results of screening of a prostaglandin small molecule library tested for the ability to upregulate PD-L1 (MFI) on CD34^+ cells obtained from T1D patients. The schematic of the experimental design is shown in (A). The 3-color coding shown in (FIG. 17B) represents lowest PD-L1 MFI values (blue), median PD-L1 MFI values (pink) and highest PD-L1 MFI values (red). (FIG. 17C-17D) Representative flow cytometric analysis and quantitative bar graph of PD-L1 expression on CD34^+ cells from T1D patients pre- and post-pharmacologic modulation with PGE2 as compared to CD34^+ cells obtained from healthy controls. (FIG. 17E) PD-L1 and CXCR4 expression (mRNA) fold change was quantified for CD34^+ cells pre- and post-modulation with PGE2. (FIG. 17F) Migration assay using CD34^+ cells pre- and post-modulation with PGE2. (FIG. 17G) Confocal imaging of CD34^+ cells pre- and post-modulation with PGE2, showing DAPI (in blue) and PD-L1 (in green) staining. 63× magnification. Scale bar, 50 (FIG. 17H) IDO-1 expression (mRNA) fold change was quantified for CD34^+ cells pre- and post-modulation with PGE2. (FIG. 17I-17J) Representative flow cytometric analysis (FIG. 17I) and quantitative bar graph (FIG. 17J) of PD-L1 expression on CD34^+ cells from T1D patients pre- and post-pharmacologic modulation with 4 small molecule PGE2 agonists. All data are expressed as mean±SEM. *P<0.05, **P<0.001. Abbreviations: MFI, mean fluorescence intensity.
Pharmacological modulation of human CD34+ cells. 1×105 of isolated human CD34+ HSPCs (purity 99%) were cultured in 200 μl of StemSpan SFEM II media (SEMCELL Technologies Inc., Cambridge, MA, USA), and each compound in the Prostaglandin Screening Library II (Cayman Chemicals, Ann Arbor, MI), was added individually at day 0 and at day 1 at a concentration of 10 μM as previously reported by the inventors and others (9, 21). In another assay, isolated CD34+ cells from freshly isolated human PBMCs or from cryopreserved PBMCs, and processed as described earlier, were cultured in the presence of a cocktail of cytokines containing: 10 μg/ml heparin (SEMCELL Technologies Inc., Cambridge, MA, USA), 10 ng/ml human SCF (Miltenyi Biotec, San Diego, CA), 20 ng/ml human TPO (Miltenyi Biotec, San Diego, CA), 10 ng/ml human FGF-1 (Miltenyi Biotec, San Diego, CA), 100 ng/ml IGFBP2 (R&D Systems, Inc., Minneapolis, MN), and 500 ng/ml Angptl3 (R&D Systems, Inc., Minneapolis, MN). PGE2 (PromoKine, PromoCell Gmbh, Germany) was added by pulsing the culture at 0, 24h, 72h and 6 days with 2 μl of diluted PGE2 (10 μM). Cells were cultured for 7 days at 37° C. in 5% CO2, and CD34+ cells were then subjected to FACS analysis and were run on a FACSCelesta™ (Becton Dickinson, Franklin Lakes, NJ). Data were analyzed using FlowJo software version 8.7.3 (Treestar, Ashland, OR). The different cytokines used here and their related concentration as well as the choice of the incubation timing was used as previously reported in the literature (22).
Prostaglandin library screening. PGE2 has been described as a small molecule known to enhance the homing and engraftment of HSPCs. It was therefore sought to screen all known types of prostaglandins using the Prostaglandin Screening Library II, which contains 64 small molecules. Each small molecule contained in the library was first screened for its capacity to upregulate PD-L1 in human CD34+ cells isolated from T1D patients (FIG. 17A-17B). CD34+ cells isolated from T1D patients were cultured in StemSpan SFEMII and pulsed with each PG (prostaglandin) small molecule contained in the aforementioned library at a concentration of 10 μM at 24 and 48h. Using FACS analysis, the MFI (mean fluorescence intensity) of PD-L1 expression was calculated following treatment with each small molecule used to modulate CD34+ cells as compared to untreated/unmodulated CD34+ cells (FIG. 17B). […]

CD34+ cells = test: qRT-PCR of PD-L1, CXCR4 and IDO-1 in prostaglandin-modulated CD34+ cells; assay type: cell-based, human; settings: CD34+ cells upon modulation
Protocol: qRT-PCR. RNA was extracted from CD34+ cells using Direct-Zol™ RNA Kits (Zymo, Irvine, CA, USA) and Trizol Reagent (Invitrogen Carlsbad, CA), RNA quality was assessed by Multiskan™ GO Microplate spectrophotometer and the ratios of absorbance at 260 nm and 280 nm were assessed for all the samples. Only samples with RNA ratios within 1.9 were included in the present study. cDNA synthesis was made from purified total RNA by reverse transcription using High capacity cDNA Reverse Transcription RETROscript® Kit (Thermo Fisher Scientific, Waltham, MA, USA) followed by a pre-amplification using Taqman PreAmp Kit (Applied Biosystems) according to the manufacturer's instructions. qRT-PCR analysis was performed using TaqMan assays (Life Technologies, Grand Island, NY) containing PCR primers and TaqMan probes according to the manufacturer's instructions. Normalized expression values were determined using the ΔCt method. Quantitative reverse transcriptase polymerase chain reaction (qRT-PCR) data were normalized for the expression of GAPDH. qRT-PCR reactions were performed in triplicate in a 96-well format using an Applied Biosystems 7900HT fast real-time PCR instrument. Relative expression was calculated using the comparative threshold cycle method as previously described (23, 24). For two-group comparisons, a Student's t test was employed. Reported below are the main characteristics of the primers used: […]
Prostaglandin library screening. PGE2 has been described as a small molecule known to enhance the homing and engraftment of HSPCs. It was therefore sought to screen all known types of prostaglandins using the Prostaglandin Screening Library II, which contains 64 small molecules. Each small molecule contained in the library was first screened for its capacity to upregulate PD-L1 in human CD34+ cells isolated from T1D patients (FIG. 17A-17B). CD34+ cells isolated from T1D patients were cultured in StemSpan SFEMII and pulsed with each PG (prostaglandin) small molecule contained in the aforementioned library at a concentration of 10 μM at 24 and 48h. Using FACS analysis, the MFI (mean fluorescence intensity) of PD-L1 expression was calculated following treatment with each small molecule used to modulate CD34+ cells as compared to untreated/unmodulated CD34+ cells (FIG. 17B). A heat map was generated depicting the degree to which each PG small molecule affected PD-L1 expression on CD34+ cells (FIG. 17B), thus allowing for the evaluation of PG candidates. Based on its ability to modulate PD-L1 expression, PGE2 was selected as a candidate for further study; in addition, PGE2 has been described in the literature and has been tested in clinical trials as a potential therapy for enhancing HSPC engraftment following cord blood transplantation (21). Isolated CD34+ cells from healthy control patients (CTRL) and from T1D patients were cultured in StemSpan SFEMII and pulsed with 10 μM of PGE2 at 24 hours and 48 hours. […] It was therefore sought to perform a migration assay in order to assess the homing properties of PGE2-treated CD34+ cells (FIG. 17F).

[1] = test system: NEU1, MTOR, MYC, IGF1R, VEGFA, RB1 in MDA-MB-231 cells; test: mRNA of validated miRNA target genes (transfection control) in MDA-MB-231 cells; assay type: cell-based, human; settings: VEGFA or RB1 as named for each agent, 48 h after transfection
Protocol: MDA-MB-231 breast cancer cells were cultured in DMEM high glucose medium (Gibco, Thermo Fisher Scientific; Waltham, MA USA) supplemented with 10% heat-inactivated fetal calf serum (Gibco, Thermo Fisher Scientific), 100 units/ml penicillin, 100 μg/ml streptomycin, and 2 mM L-glutamine. 2×10^5 cells were seeded in each well of a 6-well plate and transfected with 10 pmol of the miRNA mimic or miRNA mimic negative control, or 100 pmol of the anti-miR or anti-miR negative control (all from Exiqon, Qiagen) using the Lipofectamine RNAiMAX transfection reagent (Invitrogen, Thermo Fisher Scientific) in a final culture medium volume of 2 ml, following manufacturer's instructions. […] Forty-eight hours after transfection, cells were collected from each well for RNA extraction, cell lysate preparation and FACS analysis. RNA was extracted using Direct-zol RNA miniprep plus (Zymo research, Irvine, CA, USA) and RNA quality was checked and then retro-transcribed using RETROscript® Kit (Fisher Scientific) following manufacturer's instructions. Cell lysates were obtained in RIPA buffer (50 mmol/1 Tris-HCl, pH 8.0, 1% Triton-x, 0.5% sodium deoxycholate, 0.1% SDS, 150 mmol/1 sodium chloride) with protease inhibitor cocktail (Roche).
qRT-PCR for PD-L1 analysis was performed on retro-transcribed cDNA using SYBR® Green dye (Life Technologies, Thermo Fisher Scientific). Amplification was performed on a QuantStudio S6 Real Time PCR system (Thermo Fisher Scientific). To confirm a successful transfection, the mRNA level of genes known to be controlled by the targeted miRNAs were evaluated by SYBR® Green dye (Life Technologies, Thermo Fisher Scientific) according to the manufacturer's instructions. Normalized expression values were determined using the ΔΔCt method in treated as compared to negative treated samples, using GAPDH mRNA as endogenous reference. The miRNA-targeted genes tested, along with forward and reverse primer sequences used for their amplification, are listed in Table 13.
To determine if targeting the miRNA network decreases PD-L1 expression in human cancer setting, PD-L1-expressing MDA-MB-231 human breast cancer cells were transfected with a set of miRNA mimics or anti-miRs to either increase or decrease the function of a set of miRNAs not previously known to affect PD-L1 (miR-125b, miR-99a, miR-744, mir-599, miR-511, miR-206, miR-26b). The effect of treatment with miRNA mimics and anti-miRs on the percentage of PD-L1-expressing cells, as well as on PD-L1 mRNA and protein levels, was investigated. miRNA mimic/anti-miR treated-cells were compared to corresponding mimic/anti-miR negative control-treated cells by flow cytometric analysis, Real Time PCR and western blot to assess percentage of PD-L1-expressing cells, PD-L1 mRNA, and PD-L1 protein levels, respectively. A successful miRNA mimic/anti-miR transfection was confirmed by the detection of changed mRNA levels of the validated miRNA targets NEU1 (for miR-125b mimic), MTOR (for miR-99a mimic), MYC (for miR-744 mimic and miR-599 anti-miR), IGF1R (for miR-511 mimic), VEGFA (for miR-206 anti-miR) and RB1 (for miR-26b anti-miR) in treated cells (FIG. 22A). […] Lysates of miR-511 mimic and miR-206 anti-miR treated cells were not available for western blot analysis.

CCCCC[C@H](O)/C=C/[C@H]1[C@H](O)CC(=O)[C@@H]1CC(=O)CCCCC(=O)O [6-keto PGE1]
capacity to upregulate PD-L1 (MFI) in library screening (PD-L1 on CD34+ cells): strongest capacity
PD-L1 expression by FACS analysis (PD-L1 on CD34+ cells): robust upregulation

CCCCC(C)(C)[C@H](O)/C=C/[C@H]1[C@H](O)CC(=O)[C@@H]1C/C=C\CCCC(=O)Oc1ccc(NC(=O)c2ccc(NC(C)=O)cc2)cc1 [16,16-dimethyl PGE2 4-(4-acetamidobenzamido) phenyl ester]
PD-L1 mRNA expression by RT-PCR (CD34+ cells): marked upregulation
capacity to upregulate PD-L1 (MFI) in library screening (PD-L1 on CD34+ cells): strongest capacity
PD-L1 expression by FACS analysis (PD-L1 on CD34+ cells): robust upregulation

CCCCCCC[C@H](O)/C=C/[C@H]1[C@H](O)CC(=O)[C@@H]1C/C=C\CCCC(=O)O [20-ethyl PGE2]
PD-L1 mRNA expression by RT-PCR (CD34+ cells): marked upregulation
capacity to upregulate PD-L1 (MFI) in library screening (PD-L1 on CD34+ cells): strongest capacity
PD-L1 expression by FACS analysis (PD-L1 on CD34+ cells): robust upregulation

miR-26b anti-miR: Anti-miR, CUAUCCUGAAUUACUUGA, SEQ ID NO: 8 (listed as RNA, chemistry not given here)
mRNA levels of the validated miRNA target [1]: changed

miR-99a mimic: miRNA mimic, AACCCGUAGAUCCGAUCUUGUG, SEQ ID NO: 3 (listed as RNA, chemistry not given here)
mRNA levels of the validated miRNA target [1]: changed

miR-206 anti-miR: Anti-miR, CACACACUUCCUUACAUUCC, SEQ ID NO: 7 (listed as RNA, chemistry not given here)
mRNA levels of the validated miRNA target [1]: changed

miR-511 mimic: miRNA mimic, AAUGUGUAGCAAAAGACAGA, SEQ ID NO: 2 (listed as RNA, chemistry not given here)
mRNA levels of the validated miRNA target [1]: changed

miR-744 mimic: miRNA mimic, CUGUUGCCACUAACCUCAACCU, SEQ ID NO: 4 (listed as RNA, chemistry not given here)
mRNA levels of the validated miRNA target [1]: changed
